Experiments:
[1] = tested on: Tau; experiment: iBEp dose range in hTau/ApoE double KI primary neurons, sarkosyl-insoluble Tau; format: cell-based, mouse
[2] = tested on: newly synthesized Tau; experiment: Puro-PLA-Tau: proximity ligation with puromycylation for newly synthesized Tau; format: cell-based
Source text: Analysis was done blinded to experimental condition. […] Scale bar=100 μm (right).

[3] = biological target: T1, proteasome (Mus musculus, UniProt O55234+P70195+Q60692); experiment: Covalent biotinylation of proteins in iBEp-treated neurons (SDS-PAGE biotin signal); format: cell-based
T1 construct: endogenous in cells
Source text: (§1) We next tested the potency and selectivity of iBEp relative to Epoxomicin. Epoxomicin covalently and irreversibly binds the catalytic β subunits of the proteasome-therefore, the biotin moiety on iBEp serves as a tracer to detect whether proteasomes are inhibited by monitoring biotin signal on an SDS-PAGE gel (83, 87-89). […] This is supported by previous data that modification of the non-reactive end of epoxomicin has been shown not to change the selectivity of Epoxomicin for the proteasome (83, 87-89). […] We therefore chose doses of inhibitor where the effective concentration of the inhibitor was similar to previous studies using Epoxomicin alone and well within the acceptable range of efficacy given how potent Epoxomicin is as a proteasome inhibitor.

[4] = tested on: primary cortical neurons; experiment: Quantitative TMT proteomics of sarkosyl-soluble and sarkosyl-insoluble fractions; format: cell-based, mouse; conditions: 1 and 6 hours
Source text: (FIG. 4A) (Top) Structure of azide-PEG24-epoxomicin handle to enable rapid conjugation of linkers to global proteasome inhibitor epoxomicin using Click chemistry. (Bottom) Structure of Neuroproteasome-specific inhibitor impermeant Biotin-PEG24-Epoxomicin (iBEp). (FIG. 4B) Assessing permeability of iBEp in primary neurons. […] Cytosolic (Cyto) and membrane (Mem) fractions were immunoblotted using indicated antibodies. (FIG. 4C) Proteasome catalytic activity of membrane (Mem) and cytosolic (Cyto) fractions of neurons treated with iBEp. […] Proteasome catalytic activity was assessed by monitoring degradation of Suc-LLVY-AMC; proteasome-dependent cleavage of the substrate increases AMC fluorescence. N=3 biological replicates. **** p<0.0001 by One-Way ANOVA. (FIG. 4D) Primary neurons treated with iBEp probed for autophagy markers. […] Lysates were immunoblotted using indicated antibodies against common autophagy markers. Quantification of p62, LC3b, and Ulk1 intensities normalized to Actin. […] (FIG. 4E) Schematic to analyze changes in sarkosyl-soluble and insoluble proteomes in response to neuroproteasome inhibition. […] Sarkosyl-soluble and insoluble fractions were labeled with Tandem Mass Tags (TMTpro) for quantitative mass spectrometry. (FIG. 4F) Differential enrichment of proteins in the sarkosyl-soluble fraction of neurons treated with iBEp versus DMSO was analyzed and plotted as log 2-fold change vs-log 10 (P-value). Green dots represent proteins enriched in the iBEp treatment compared to DMSO treatment. (FIG. 4G) Graphs plotting the log 2-fold change of select Neuroproteasome substrates enriched in the sarkosyl-soluble fraction from MS analysis in (FIG. 4F) compared to UPS substrates and autophagy markers ** p<0.01 (adjusted p-value after multiple corrections). (FIG. 4H) Differential enrichment of proteins in the sarkosyl-insoluble fraction of neurons treated with iBEp versus DMSO was analyzed and plotted as log 2-fold change vs −log 10 (P-value). Green dots represent proteins enriched in the iBEp treatment compared to DMSO treatment. […]

[5] = tested on: Thioflavin S-positive aggregates; experiment: Thioflavin S staining of hippocampal sections of hTau-KI mice after stereotactic injection; conditions: stereotactic injection, 72 hours, vs vehicle
Procedure: (§4) Scale bars=15 μm (FIG. 6C) Immunohistochemical analysis of mice stereotactically injected with iBEp to measure Tau phosphorylation in vivo. […] Mice were collected 72 hours post injection and sections were stained using indicated antibodies: NeuN (blue) and AT8 (pTau, green). 4×, 20× and 60× representative images are shown. Quantification of pTau signal intensity was normalized to NeuN intensity. Analysis was done blinded to experimental condition. Data are mean±SEM normalized either to DMSO or iBEP+CHX. n=2 sections/animal, ** p<0.01 by Paired T-test/experiment. Scale bars=500 μm (left), scale bar=25 μm (right). (FIG. 6D) Immunohistochemical analysis of mice stereotactically injected with iBEp to measure Thioflavin-S positive Tau aggregates in vivo. Four-to-five month old hTau-KI mice were treated identically to (FIG. 6C), but stained for Thioflavin S (magenta) to visualize β-sheet containing aggregates and immunostained with NeuN (blue). N=7 (3M, 4F). Left, Vehicle-treated hippocampus, Right, iBEp-treated hippocampus (red). […] Data are quantification of number of flame-like Thioflavin-S positive inclusions. Counting and analysis was blinded to experimental condition. *** p<0.001 by one-way ANOVA. Scale bars=100 μm. (FIG. 6E) Higher magnification image of flame-like Thioflavin S-positive inclusions (magenta), NeuN (blue). Top, ThioS alone, Bottom, merge with NeuN. Scale bar=20 μm. […]

[6] = biological target: T2, neuroproteasomes (Mus musculus, UniProt O55234+P70195+Q60692); experiment: Suc-LLVY-AMC proteasome activity, membrane fraction of iBEp-treated neurons; format: cell-based; conditions: 6 hours, DIV14 neurons, vs DMSO
T2 construct: endogenous in cells; host or cells: primary cortical neurons from WT mice (DIV13-14); membrane and cytosolic fractions
Source text: (§2) (FIG. 4A) (Top) Structure of azide-PEG24-epoxomicin handle to enable rapid conjugation of linkers to global proteasome inhibitor epoxomicin using Click chemistry. (Bottom) Structure of Neuroproteasome-specific inhibitor impermeant Biotin-PEG24-Epoxomicin (iBEp). (FIG. 4B) Assessing permeability of iBEp in primary neurons. […] Cytosolic (Cyto) and membrane (Mem) fractions were immunoblotted using indicated antibodies. (FIG. 4C) Proteasome catalytic activity of membrane (Mem) and cytosolic (Cyto) fractions of neurons treated with iBEp. […] Proteasome catalytic activity was assessed by monitoring degradation of Suc-LLVY-AMC; proteasome-dependent cleavage of the substrate increases AMC fluorescence. N=3 biological replicates. **** p<0.0001 by One-Way ANOVA. (FIG. 4D) Primary neurons treated with iBEp probed for autophagy markers. […] Quantification of p62, LC3b, and Ulk1 intensities normalized to Actin. […] Sarkosyl-soluble and insoluble fractions were labeled with Tandem Mass Tags (TMTpro) for quantitative mass spectrometry. (FIG. 4F) Differential enrichment of proteins in the sarkosyl-soluble fraction of neurons treated with iBEp versus DMSO was analyzed and plotted as log 2-fold change vs-log 10 (P-value). […] (FIG. 4H) Differential enrichment of proteins in the sarkosyl-insoluble fraction of neurons treated with iBEp versus DMSO was analyzed and plotted as log 2-fold change vs −log 10 (P-value). […]

[7] = tested on: Tau; experiment: Sarkosyl-insoluble Tau in hippocampus of hTau-KI mice after stereotactic injection; format: in vivo, mouse; conditions: 6.4 μM iBEp stereotactic, contralateral vehicle, 72 hours
[8] = tested on: phosphorylated Tau; experiment: Immunohistochemistry for phosphorylated Tau (AT8) in hTau-KI mice after stereotactic injection; conditions: stereotactic injection, 72 hours, vs contralateral control
Procedure: as §4

[9] = tested on: phosphorylated Tau; experiment: Immunocytochemistry for phosphorylated Tau (CP13) in hTau-KI hippocampal neurons; format: cell-based, mouse; conditions: 12 hours, primary hippocampal hTau-KI neurons, vs controls
[10] = iBEp permeability in vivo: stereotactic CA1 injection and membrane fractionation; design: species or system mouse; conditions: stereotactic injection into CA1, 72 hours
[11] = tested on: endogenous mouse Tau; experiment: Sarkosyl fractionation and Tau immunoblot, WT primary cortical neurons; format: cell-based; conditions: 1 μM, 12 hours, vs DMSO
Source text: (§3) (FIG. 5A) Effect of neuroproteasome-specific inhibitor iBEp on Tau aggregation in primary neurons. […] Quantification of soluble and insoluble murine Tau (mTau) intensities normalized to soluble GAPDH. […] (FIG. 5B) Effect of neuroproteasome inhibition on aggregation of human Tau (hTau). […] (FIG. 5C) Generation of reversible neuroproteasome inhibitors to test effects of neuroproteasome inhibition. (Top) Structure of Sulfo-MG132 (SulfoMG). […] (FIG. 5D) Effect of reversible neuroproteasome inhibition using SulfoMG on Tau aggregation. […] Quantification of soluble and insoluble Tau intensities were normalized to soluble GAPDH. Data (right) are mean±SEM normalized respective to DMSO controls. […] (FIG. 5E) Testing iBEp permeability in vivo. […] 72 hours post injection, hippocampi were isolated and subjected to membrane fractionation without detergent. […] (FIG. 5F) Effect of neuroproteasome inhibition on Tau aggregation in vivo.

[12] = tested on: Tau; experiment: Quantitative TMT phosphoproteomics of Tau in iBEp-treated WT neurons; format: cell-based, mouse; conditions: 1 μM, 1, 6 or 24 hours, WT primary neurons
Source text: We noticed that neuroproteasome inhibition induces the shift of sarkosyl-insoluble Tau into a species which migrates at a higher molecular weight on an SDS-PAGE gel, at approximately 64 kDa (FIG. 5A, FIG. 5B, FIG. 5D, FIG. 5F, FIG. 5G). Similar shifts in molecular weight of Tau are observed in the AD brain and is a hallmark phenotype of multiple neurodegenerative disorders (109, 110). This molecular weight shift can in part be due to Tau phosphorylation at many residues. Therefore, we wanted to address whether iBEp-induced Tau aggregates are phosphorylated. Rather than profiling by a panel of phospho-specific antibodies against Tau, we took a more unbiased approach and measured Tau phosphorylation by quantitative phosphoproteomics. We treated primary WT neurons with iBEp for either 1, 6, or 24 hours and then performed sarkosyl fractionations.

[13] = tested on: p62, LC3bI/II, Ulk1; experiment: Autophagy marker immunoblot in primary neurons; format: cell-based, mouse; conditions: 12 hours, DIV14 WT primary cortical neurons
Source text: (FIG. 4A) (Top) Structure of azide-PEG24-epoxomicin handle to enable rapid conjugation of linkers to global proteasome inhibitor epoxomicin using Click chemistry. (Bottom) Structure of Neuroproteasome-specific inhibitor impermeant Biotin-PEG24-Epoxomicin (iBEp). (FIG. 4B) Assessing permeability of iBEp in primary neurons. […] Cytosolic (Cyto) and membrane (Mem) fractions were immunoblotted using indicated antibodies. (FIG. 4C) Proteasome catalytic activity of membrane (Mem) and cytosolic (Cyto) fractions of neurons treated with iBEp. […] Proteasome catalytic activity was assessed by monitoring degradation of Suc-LLVY-AMC; proteasome-dependent cleavage of the substrate increases AMC fluorescence. N=3 biological replicates. **** p<0.0001 by One-Way ANOVA. (FIG. 4D) Primary neurons treated with iBEp probed for autophagy markers. […] Lysates were immunoblotted using indicated antibodies against common autophagy markers. Quantification of p62, LC3b, and Ulk1 intensities normalized to Actin. […] (FIG. 4E) Schematic to analyze changes in sarkosyl-soluble and insoluble proteomes in response to neuroproteasome inhibition. […] Sarkosyl-soluble and insoluble fractions were labeled with Tandem Mass Tags (TMTpro) for quantitative mass spectrometry. (FIG. 4F) Differential enrichment of proteins in the sarkosyl-soluble fraction of neurons treated with iBEp versus DMSO was analyzed and plotted as log 2-fold change vs-log 10 (P-value). Green dots represent proteins enriched in the iBEp treatment compared to DMSO treatment. (FIG. 4G) Graphs plotting the log 2-fold change of select Neuroproteasome substrates enriched in the sarkosyl-soluble fraction from MS analysis in (FIG. 4F) compared to UPS substrates and autophagy markers ** p<0.01 (adjusted p-value after multiple corrections). (FIG. 4H) Differential enrichment of proteins in the sarkosyl-insoluble fraction of neurons treated with iBEp versus DMSO was analyzed and plotted as log 2-fold change vs −log 10 (P-value). Green dots represent proteins enriched in the iBEp treatment compared to DMSO treatment. (FIG. 4I) (Left) Identification of proteins which are exclusively enriched in the insoluble fraction with no corresponding change in the soluble fraction (red). Plk2 represents the only protein which is enriched in the soluble fraction with no corresponding change in the insoluble fraction (green). Proteins plotted as differences in log 2 fold changes. (Right) Graphs plotting the log 2 fold changes of insoluble Tau (top) and soluble Tau (bottom) enriched in neurons treated with iBEp vs DMSO. ** p<0.01 (adjusted p-value after multiple corrections).
FIG. 5A-5G: Neuroproteasomes are differentially regulated by ApoE isoforms to determine formation of endogenous sarkosyl-insoluble Tau inclusions. […]

[14] = tested on: human Tau; experiment: Sarkosyl fractionation and Tau immunoblot, hTau-KI primary cortical neurons; format: cell-based; conditions: 1 μM, 12 hours, vs DMSO
Source text: as §3

[15] = biological target: proteasome (Homo sapiens, UniProt P28072+P28074+Q99436); experiment: Efficacy against the proteasome relative to the parent inhibitor; format: biochemical
Source text: as §1
Many of our experiments rely on the use of iBEp because the biotin tracer on an irreversible and specific inhibitor allows us to track which proteasomes are inhibited. However, we wanted to validate our findings using a proteasome inhibitor with a distinct mechanism of action from Epoxomicin. We therefore modified MG132, a reversible peptide aldehyde proteasome inhibitor, with a sulfonated biotin linker on the nonreactive N-terminus (84). […] Instead, we turned to cellular and functional readouts of permeability. […]

[16] = biological target: T3, cytosolic proteasomes (Mus musculus, UniProt O55234+P70195+Q60692); experiment: Suc-LLVY-AMC proteasome activity, cytosolic fraction of iBEp-treated neurons; format: cell-based; conditions: 6 hours, DIV14 neurons, vs DMSO
T3 construct: endogenous in cells; host or cells: primary cortical neurons from WT mice (DIV13-14); membrane and cytosolic fractions
Source text: as §2

[17] = tested on: primary cortical neurons; experiment: Permeability of iBEp in primary cortical neurons: membrane fractionation and biotin blot; format: cell-based, mouse; conditions: 1 μM, 1, 6 and 24 hours, cytosolic vs membrane fraction
Source text: as §2

[18] = dose range 1000-1.6 nM, hTau/ApoE double KI neurons

Q: What does the source list for `CC[C@H](C)[C@H](NC(=O)CCOCCOCCOCCOCCOCCOCCOCCOCCOCCOCCOCCOCCOCCOCCOCCOCCOCCOCCOCCOCCOCCOCCOCCOCCn1cc(COCCOCCOCCOCCNC(=O)CCCC[C@@H]2SC[C@@H]3NC(=O)N[C@@H]32)nn1)C(=O)N[C@H](C(=O)N[C@H](C(=O)N[C@@H](CC(C)C)C(=O)[C@@]1(C)CO1)[C@@H](C)O)[C@@H](C)CC` [iBEp, Biotin-PEG24-Epoxomicin]?
A: sarkosyl-insoluble Tau in hTau/E4-dKI neurons at the lowest dose ([1]; dose range 1000, 200, 40, 8 and 1.6 nM): accumulation of sarkosyl-insoluble Tau in hTau/E4-dKI neurons; susceptibility to Tau aggregation, E4 neurons vs E3 neurons (more susceptible) [1, 18]: over 25 fold; susceptibility to Tau aggregation, hTau/E2-dKI vs hTau/E3-dKI neurons (less susceptible) [1, 18]: over 10 fold; increase in Puro-PLA-Tau signal relative to DMSO ([2]; DIV14 primary hippocampal neurons, puromycin 10 minutes): ~3.5 fold; newly synthesized Tau puncta greater than 24 nm in diameter ([2]; normalized to puncta number per size bin with DMSO): over twofold increase; proteins covalently biotinylated in treated neurons (specificity) [3]: covalent biotinylation of only three proteins; cell penetration judged from proteomics (no UPS substrates or autophagy markers accumulate) ([4]; DIV12-14 primary cortical neurons): does not detectably penetrate cells; number of proteins increasing in the soluble fraction ([4]; vs DMSO): over 250 proteins; number of proteins that become sarkosyl-insoluble ([4]; vs DMSO): 52 proteins; ThioS staining in the CA1 region of hippocampi [5]: strong increase in ThioS staining; proteasome activity in the membrane fraction [6]: almost entirely abrogated; sarkosyl-insoluble Tau in hippocampi of hTau-KI mice [7]: strong increase of sarkosyl-insoluble Tau; phosphorylated Tau (AT8) signal in injected hippocampi [8]: threefold induction of phosphorylated Tau signal; CP13 (phosphorylated S202 Tau) signal [9]: significant elevation of CP13 signal; injected concentration at which penetration into the cytosol is observed [10]: 64 µM; sarkosyl-insoluble Tau, WT neurons [11]: significant increase in sarkosyl-insoluble Tau; Tau phosphorylation sites (human S202, T205, T217, S404) [12]: time-dependent increase in Tau phosphorylation at only 4 of 26 identified sites; LC3bI/II [13]: no change in either p62 or LC3bI/II levels; p62 levels [13]: no change in either p62 or LC3bI/II levels; sarkosyl-insoluble Tau, hTau-KI neurons [14]: significant increase in sarkosyl-insoluble Tau; efficacy against the proteasome relative to the parent inhibitor [15]: moderately reduces the efficacy of iBEp relative to Epoxomicin; cytosolic proteasome activity [16]: remains completely intact; location of the biotin signal of covalent proteasome inhibition (permeability) [17]: only in the membrane fraction, and not in the cytosol
